This is an account of results in patent USRE45128E1, “Cephalotaxane derivatives and their processes of preparation and purification” (IVAX International GmbH, priority 1998, dated 2014).

Data set [1] can be described thus: Stability of cephalotaxine in acidic solution. The format is physicochemical. The conditions noted are these: several days in solution at pH 1-4 at 20° C. (personal observation). Here is the method:
This alkaloid is relatively insensitive to basic media. On the other hand, several authors describe a certain level of sensitivity to acids and to quaternization of the nitrogen with methyl iodide, leading to a racemization by simultaneous inversion of the 3 asymmetric centres and of the nitrogen [D. J. Abraham, R. D. Rosensten and E. L. McGandy, Tetrahedron Letters, 4085 (1969)]. However, a period of several days in solution at pH 1-4 at 20° C. leaves this structure intact (personal observation).

For data set [2] the following is noted: continuous intravenous central infusion (CIVI), patients with CML; cited from earlier work.
In data set [3] the test system is chronic myeloid leukaemias that have become resistant to alpha-interferon. The conditions noted are these: patients suffering from chronic myeloid leukaemias resistant to alpha-interferon; cited from earlier work.
The conditions of data set [4]: doses twenty times lower than that for Taxol; cited from earlier work.

Molecules are shown by their SMILES. A value given as a limit tells only on which side of the number the result lay.

Regarding `COC1=C[C@]23CCCN2CCc2cc4c(cc2[C@@H]3C1O)OCO4` (single isomer, unassigned; (-)) [cephalotaxine, (−)-cephalotaxine], the “structure after a period in acidic solution” value in data set [1] is given as “intact”.
Regarding `COC(=O)C[C@](O)(CCC(C)(C)O)C(=O)O[C@@H]1C(OC)=C[C@]23CCCN2CCc2cc4c(cc2[C@H]13)OCO4` [HA, harringtonine], the extra-hematologic toxicity entry in data set [2] is reported as “very mild”.
Turning to `COC(=O)C[C@](O)(CCCC(C)(C)O)C(=O)OC1C(OC)=C[C@]23CCCN2CCc2cc4c(cc2[C@H]13)OCO4` (stereo partly drawn) [HHT, cephalotaxine, 4-methyl (2R)-2-hydroxy-2-(4-hydroxy-4-methylpentyl)butanedioate (ester)], the “reinduction of full haematological remissions” value in data set [3] is recorded as 70%. Moreover, the “daily doses at and above which active” value in data set [4] is ≥ 2.5 mg/m^2 of body area per 24 hours. The extra-hematologic toxicity entry in data set [2] is recorded as “very mild”.
